System: not listed separately
Experiment: logP determination by HPLC on reversed-phase column (EEC Directive 79/831 Annex V.A8)
Assay type: physicochemical
Details: pH 2.3
Procedure: The logP values given in the Preparation Examples and Tables above are determined in accordance with EEC Directive 79/831 Annex V.A8 by HPLC (High Performance Liquid Chromatography) using a reversed-phase column (C 18). Temperature: 43° C.
The determination in the acidic range is carried out at pH 2.3 using the mobile phases 0.1% aqueous phosphoric acid and acetonitrile; linear gradient from 10% acetonitrile to 90% acetonitrile.
Calibration is carried out using unbranched alkan-2-ones (having 3 to 16 carbon atoms) with known logP values (determination of the logP values by the retention times using linear interpolation between two successive alkanones).

Structure (SMILES) | logP (pH 2)/m.p. | logP (pH 2)
N#Cc1cnn(C2CN(C(=O)Nc3ccc(SC(F)(F)F)cc3)N=C2c2ccc(SC(F)(F)F)cc2)c1 (stereo not shown) [Example 16] | 4.73 | 
CN(C)C(=O)c1cnn(C2CN(C(=O)Nc3ccc(OC(F)(F)F)cc3)N=C2c2ccc(Cl)cc2)c1 (stereo not shown) [Example 19] | 3.27 | 
CN(C)C(=O)c1cnn(C2CN(C(=O)Nc3ccc(SC(F)(F)F)cc3)N=C2c2ccc(Cl)cc2)c1 (stereo not shown) [Example 26] | 3.27 | 
CN(C)C(=O)c1cnn(C2CN(C(=O)Nc3ccc(S(=O)(=O)C(F)(F)F)cc3)N=C2c2ccc(Cl)cc2)c1 (stereo not shown) [Example 27] | 3.27 | 
N#Cc1cnn(C2CN(C(=O)Nc3ccc(SC(F)(F)F)cc3)N=C2c2ccc(Cl)cc2)c1 (stereo not shown) [Example 5] | 4.27 | 
N#Cc1cnn(C2CN(C(=O)Nc3ccc(C(F)(F)F)cc3)N=C2c2ccc(Cl)cc2)c1 (stereo not shown) [Example 4] | 3.86 | 
N#Cc1cnn(CC(=O)c2ccc(Br)cc2)c1 [VI-3] |  | 2.31
N#Cc1cnn(C2CN(C(=O)Nc3ccc(OC(F)(F)F)cc3)N=C2c2ccc(I)cc2)c1 (stereo not shown) [Example 13] | 4.12 | 
NC(=O)c1cnn(C2CN(C(=O)Nc3ccc(OC(F)(F)F)cc3)N=C2c2ccc(Cl)cc2)c1 (stereo not shown) [Example 23] | 2.94 | 
NC(=O)c1cnn(C2CN(C(=O)Nc3ccc(S(=O)(=O)C(F)(F)F)cc3)N=C2c2ccc(Cl)cc2)c1 (stereo not shown) [Example 25] | 2.94 | 
N#Cc1cnn(C2CN(C(=O)Nc3ccc(SC(F)(F)F)cc3)N=C2c2ccc(I)cc2)c1 (stereo not shown) [Example 14] | 4.48 | 
N#CCNc1ccc(C(F)(F)F)cc1 [XII-3] |  | 2.36
CCOC(=O)N(C(=O)N1CC(n2cc(C#N)cn2)C(c2ccc(Cl)cc2)=N1)c1ccc(OC(F)(F)F)cc1 (stereo not shown) [Example 7] | 4.06 | 
N#Cc1cnn(CC(=O)c2ccc(I)cc2)c1 [VI-4] |  | 2.47
CNC(=O)c1cnn(C2CNN=C2c2ccc(Cl)cc2)c1 (stereo not shown) [II-7] |  | 1.38
NC(=O)c1cnn(C2CNN=C2c2ccc(Cl)cc2)c1 (stereo not shown) [II-8] |  | 1.28
NC(=O)c1cnn(C2CN(C(=O)Nc3ccc(SC(F)(F)F)cc3)N=C2c2ccc(Cl)cc2)c1 (stereo not shown) [Example 24] | 3.24 | 
N#CCN(C(=O)N1CC(n2cc(C#N)cn2)C(c2ccc(Br)cc2)=N1)c1ccc(SC(F)(F)F)cc1 (stereo not shown) [Example 34] | 3.99 | 
COC(=O)c1cnn(C2CNN=C2c2ccc(Cl)cc2)c1 (stereo not shown) [II-5] |  | 2.13
N#Cc1cnn(C2CN(C(=O)Nc3ccc(OC(F)(F)F)cc3)N=C2c2ccc(Br)cc2)c1 (stereo not shown) [Example 9] | 4.00 | 
N#Cc1cnn(C2CNN=C2c2ccc(SC(F)(F)F)cc2)c1 (stereo not shown) [II-4] |  | 2.78
N#Cc1cnn(C2CNN=C2c2ccc(Br)cc2)c1 (stereo not shown) [II-2] |  | 2.20
NC(=O)c1cnn(CC(=O)c2ccc(Cl)cc2)c1 [VI-8] |  | 1.33
N#CCNc1ccc(SC(F)(F)F)cc1 [XII-2] |  | 2.82
N#Cc1cnn(C2CN(C(=O)Nc3ccc(S(=O)(=O)C(F)(F)F)cc3)N=C2c2ccc(Cl)cc2)c1 (stereo not shown) [Example 18] | 3.78 | 

Structure (SMILES) | logP (pH 2)/m.p. | logP (pH 2)
COC(=O)N(C(=O)N1CC(n2cc(C#N)cn2)C(c2ccc(Cl)cc2)=N1)c1ccc(OC(F)(F)F)cc1 (stereo not shown) [Example 6] | 3.82 | 
N#Cc1cnn(C2CN(C(=O)Nc3ccc(OC(F)(F)F)cc3)N=C2c2ccc(SC(F)(F)F)cc2)c1 (stereo not shown) [Example 15] | 4.39 | 
N#Cc1cnn(C2CN(C(=O)Nc3ccc(SC(F)(F)F)cc3)N=C2c2ccc(Br)cc2)c1 (stereo not shown) [Example 10] | 4.35 | 
N#Cc1cnn(CC(=O)c2ccc(SC(F)(F)F)cc2)c1 [VI-5] |  | 2.91
N#Cc1ccc(NC(=O)N2CC(n3cc(C#N)cn3)C(c3ccc(Cl)cc3)=N2)cc1 (stereo not shown) [Example 29] | 3.00 | 
N#Cc1cnn(C2CN(C(=O)Nc3ccc(C(F)(F)F)cc3)N=C2c2ccc(Br)cc2)c1 (stereo not shown) [Example 37] | 3.94 | 
CNC(=O)c1cnn(CC(=O)c2ccc(Cl)cc2)c1 [VI-7] |  | 1.44
CN(C)C(=O)c1cnn(C2CNN=C2c2ccc(Cl)cc2)c1 (stereo not shown) [II-6] |  | 1.54
N#Cc1cnn(C2CNN=C2c2ccc(I)cc2)c1 (stereo not shown) [II-3] |  | 2.33
N#Cc1cnn(C2CN(C(=O)Nc3ccc(Br)cc3)N=C2c2ccc(Cl)cc2)c1 (stereo not shown) [Example 28] | 3.73 | 
N#CCN(C(=O)N1CC(n2cc(C#N)cn2)C(c2ccc(Br)cc2)=N1)c1ccc(OC(F)(F)F)cc1 (stereo not shown) [Example 33] | 3.75 | 
N#Cc1cnn(C2CN(C(=O)Nc3ccc(S(=O)(=O)C(F)(F)F)cc3)N=C2c2ccc(Br)cc2)c1 (stereo not shown) [Example 11] | 3.88 | 
COC(=O)c1cnn(C2CN(C(=O)Nc3ccc(OC(F)(F)F)cc3)N=C2c2ccc(Cl)cc2)c1 (stereo not shown) [Example 17] | 3.95 | 
N#CCN(C(=O)N1CC(n2cc(C#N)cn2)C(c2ccc(Br)cc2)=N1)c1ccc(C(F)(F)F)cc1 (stereo not shown) [Example 35] | 3.63 | 
N#CCN(C(=O)N1CC(n2cc(C#N)cn2)C(c2ccc(Cl)cc2)=N1)c1ccc(Cl)cc1 (stereo not shown) [Example 31] | 3.42 | 
CNC(=O)c1cnn(C2CN(C(=O)Nc3ccc(SC(F)(F)F)cc3)N=C2c2ccc(Cl)cc2)c1 (stereo not shown) [Example 21] | 3.39 | 
N#Cc1cnn(C2CN(C(=O)Nc3ccc([S+]([O-])C(F)(F)F)cc3)N=C2c2ccc(Cl)cc2)c1 (stereo not shown) [Example 12] | 3.28 | 
N#CCN(C(=O)N1CC(n2cc(C#N)cn2)C(c2ccc(Cl)cc2)=N1)c1ccc(SC(F)(F)F)cc1 (stereo not shown) [Example 32] | 3.90 | 
N#CCN(C(=O)N1CC(n2cc(C#N)cn2)C(c2ccc(Cl)cc2)=N1)c1ccc(C(F)(F)F)cc1 (stereo not shown) [Example 36] | 3.56 | 
N#Cc1cnn(C2CN(C(=O)Nc3ccc(OC(F)(F)F)cc3)N=C2c2ccc(Cl)cc2)c1 (stereo not shown) [Example 3] | 3.91 | 
CNC(=O)c1cnn(C2CN(C(=O)Nc3ccc(S(=O)(=O)C(F)(F)F)cc3)N=C2c2ccc(Cl)cc2)c1 (stereo not shown) [Example 22] | 3.00 | 
COC(=O)c1cnn(CC(=O)c2ccc(Cl)cc2)c1 [VI-6] |  | 2.20
N#Cc1cnn(C2CN(C(=O)Nc3ccc(I)cc3)N=C2c2ccc(Cl)cc2)c1 (stereo not shown) [Example 30] | 3.90 | 
CNC(=O)c1cnn(C2CN(C(=O)Nc3ccc(OC(F)(F)F)cc3)N=C2c2ccc(Cl)cc2)c1 (stereo not shown) [Example 20] | 3.07 | 

Same assay, conditions: reversed-phase C18 HPLC column; values in the text of the Preparation Examples; HPLC, acidic range pH 2.3, 43° C.; read-out: logP (pH 2)

Structure (SMILES) | chromatographic logP
N#Cc1cnn(C2CN(C(=O)Nc3ccc(Cl)cc3)N=C2c2ccc(Cl)cc2)c1 (stereo not shown) [Example 1, 4′-chloro-3-(4-chlorophenyl)-4-(4-cyanopyrazol-1-yl)-4,5-dihydro-1-pyrazolecarboxanilide] | 3.64
N#CCN(C(=O)N1CC(n2cc(C#N)cn2)C(c2ccc(Cl)cc2)=N1)c1ccc(OC(F)(F)F)cc1 (stereo not shown) [Example 2, 3-(4-chlorophenyl)-4-(4-cyanopyrazol-1-yl)-4,5-dihydro-1-pyrazole-(N-cyanomethyl)-4′-trifluoromethoxycarboxanilide] | 3.68
O=C(O)c1cnn(CC(=O)c2ccc(Cl)cc2)c1 [1-(4-chlorophenacyl)-pyrazole-4-carboxylic acid] | 1.67
N#CCNc1ccc(OC(F)(F)F)cc1 [XII-1, N-cyanomethyl-4-trifluoromethoxyaniline] | 2.49
CN(C)C(=O)c1cnn(CC(=O)c2ccc(Cl)cc2)c1 [VI-2, N,N-dimethyl-1-(4-chlorophenacyl)-pyrazole-4-carboxamide] | 1.62

System: Lucilia cuprina larvae
Experiment: Blowfly larvae test/development-inhibitory action
Assay type: in vivo
Details: 20 ppm; after 48 h
Procedure: 20 mg of active compound are dissolved in 1 ml of dimethyl sulphoxide. More dilute concentrations are prepared by dilution with distilled water.
About 20 Lucilia cuprina larvae are introduced into a test tube which contains about 1 cm^3 of horsemeat and 0.5 ml of the preparation of active compound to be tested. The activity of the preparation of active compound is determined after 24 and 48 hours. The test tubes are transferred into a beaker whose bottom is covered with sand. After a further 2 days, the test tubes are removed and the pupae are counted.
The activity of the preparation of active compound is assessed using the number of flies that have hatched after 1.5 times the development period of an untreated control. 100% means that none of the flies have hatched; 0% means that all of the flies have hatched normally.

Structure (SMILES) | activity/kill rate in % after 48 h
N#Cc1cnn(C2CN(C(=O)Nc3ccc(S(=O)(=O)C(F)(F)F)cc3)N=C2c2ccc(Br)cc2)c1 (stereo not shown) [drawing 82] | 100/100%
N#CCN(C(=O)N1CC(n2cc(C#N)cn2)C(c2ccc(Cl)cc2)=N1)c1ccc(OC(F)(F)F)cc1 (stereo not shown) [drawing 85] | 100/100%

Same assay, conditions: 20 ppm; after 14 d

Structure (SMILES) | activity/kill rate in % after 14 d
N#Cc1cnn(C2CN(C(=O)Nc3ccc(C(F)(F)F)cc3)N=C2c2ccc(Cl)cc2)c1 (stereo not shown) [drawing 86] | 100/100%

Same assay, conditions: 100 ppm; after 48 h

Structure (SMILES) | activity/kill rate in % after 48 h
N#Cc1cnn(C2CN(C(=O)Nc3ccc(S(=O)(=O)C(F)(F)F)cc3)N=C2c2ccc(Br)cc2)c1 (stereo not shown) [drawing 82] | 100/100%
N#CCN(C(=O)N1CC(n2cc(C#N)cn2)C(c2ccc(Cl)cc2)=N1)c1ccc(OC(F)(F)F)cc1 (stereo not shown) [drawing 85] | 100/100%

Same assay, conditions: 100 ppm; after 14 d

Structure (SMILES) | activity/kill rate in % after 14 d
N#Cc1cnn(C2CN(C(=O)Nc3ccc(C(F)(F)F)cc3)N=C2c2ccc(Cl)cc2)c1 (stereo not shown) [drawing 86] | 100/100%

Same assay, conditions: Lucilia cuprina, 48 h, read-out: activity/kill rate in % after 48 h

Structure (SMILES) | pest or weed control at 100 ppm [%]
CCOC(=O)N(C(=O)N1CC(n2cc(C#N)cn2)C(c2ccc(Cl)cc2)=N1)c1ccc(OC(F)(F)F)cc1 (stereo not shown) [drawing 80] | 100

Source: patent US20090143454A1, “Pyrazoline Derivatives and Their Use As Pesticides” (BAYER CROPSCIENCE AG, priority 2001, published 2009)
